From US20250268884A1, “Deuterated Domperidone for Treating Gastroparesis” (CinDome Pharma, Inc., priority 2022, published 2025)
Where two headings read alike, the source gives them in different places.

Legend:
[1] = test system: adults with idiopathic or diabetic gastroparesis; experiment: ANMS GCSI-DD total and subscale scores, ANMS GCSI-DD manual scoring method, Phase 2a; assay type: in vivo, human
Source text: As known in the art, the ANMS GCSI-DD covers 5 core relevant symptoms of gastroparesis: nausea, early satiety, postprandial fullness, upper abdominal pain and vomiting. Bloating is included as an exploratory symptom. Symptoms are rated on a severity numeric response scale from 0 (none) to 4 (very severe). Vomiting is captured on a frequency response scale and scored as follows: 0 for no episodes, 1 for one episode, 2 for 2 episodes, 3 for 3 episodes, and 4 for 4 or more episodes. In some embodiments, subjects recall symptoms over the previous 24 hours and completes the ANMS GCSI-DD patient-reported symptom questionnaire. In certain embodiments, the total ANMS GCSI-DD score is calculated as the mean of the 3 subscale scores for severity of nausea/vomiting, postprandial fullness/early satiety, and bloating. See, e.g., “The Use Manual for the ANMS GCSI-DD,” American Neurogastroenterology and Motility Society Gastroparesis Cardinal Symptom Index Daily Diary, 2018; https://www.fda.gov/media/125038/download. In other embodiments, the total ANMS GCSI-DD score is calculated using the ‘manual’ scoring method. The ANMS GCSI-DD manual scoring method is generated by summing the scores on each of the five symptom items (nausea, early satiety, postprandial fullness, upper abdominal pain, and number of vomiting episodes) and then dividing by 5, that is the number of items within the gastroparesis related symptom score. […] The ANMS GCSI-DD gastroparesis symptom daily score can range from 0 to 4. High scores on the ANMS GCSI-DD reflect greater symptom severity. See, e.g., “User Manuel for the ANMS GCSI-DD,” Federal Drug Administration at https://www.fda.gov/media/125038/download, which is hereby incorporated by reference.
The severity scores of 4 gastroparesis-related symptoms (nausea, early satiety, postprandial fullness, upper abdominal pain) range from 0-none to 4-very severe. The vomiting score assesses the number of vomiting episodes during the day, capped at a maximum of 4; thus, the scores for vomiting range from 0 (no episodes of vomiting) to 4 (4 or more episodes of vomiting). Vomiting frequency is scored as 0 episodes, 1 episode, 2 episodes, 3 episodes, or 4 or more episodes (capped as 4).
Table 11 presents the ANMS GCSI-DD total and subscale scores and change and percent change from baseline for the ITT Population using the ANMS GC SI-DD Manual scoring method. […] Subjects receiving placebo also experienced decreases in ANMS GCSI-DD total and subscale scores.

[2] = for AUC% extrap / CL/F / RAUC / RCmax / λz: Day 14 (steady state), mean
Procedure: (§1) The following PK parameters were calculated for deuterated domperidone from plasma concentrations (Day 1) using a noncompartmental method, if the data permitted: • Cmax determined directly from the concentration-time profile.
(§2) [formula] • λz calculated from a semi-logarithmic plot of the plasma concentration versus time curve. The parameter was calculated by linear least-squares regression analysis using points in the terminal logarithmic-linear phase; • T½ calculated as natural logarithm (2)/λz; • CL/F calculated as Dose/AUC0-∞; • Vz/F calculated as Dose/(λz×AUC0-∞); • Rcmax calculated as Cmax on Day 14/Cmax on Day 1; and • RAUC calculated as AUCtau on Day 14/AUCtau on Day 1.

[3] = test system: healthy subjects; settings: in vivo
Procedure: Categorical T-wave morphology analysis and measurement of PR and QRS intervals were fully performed manually using a semi-automated process in 3 of the 10 ECG replicates at each time point.
Treatment A: 30 mg CIN-102 [representing approximate steady-state therapeutic exposures in subject population]; Treatment B: 100 mg CIN-102 [representing potential steady-state supratherapeutic exposures in subjects]; Treatment C: 400 mg open-label moxifloxacin; Treatment D: CIN-102 placebo. A subject can appear in more than 1 category. The denominator (Total) is defined as the number of subjects or time points in the QT/QTc population for each treatment.

[4] = clinical; settings: human, plasma, oral
Procedure: as §1, §2

SMILES: [2H]c1c([2H])c([2H])c2c([nH]c(=O)n2CCCN2CCC(n3c(=O)[nH]c4cc(Cl)ccc43)CC2)c1[2H] [Deudomperidone, 1-{3-[4-(5-chloro-2-oxo-2,3-dihydro-1H-1,3-benzodiazol-1-yl)piperidin-1yl]propyl}-2,3-dihydro(4,5,6,7-D4)-1H-1,3-benzodiazol-2-one]
- ANMS GCSI-DD early satiety subscale score, Change from baseline to Day 14/EOT ([1]; 20 mg QD, mean, ITT Population): −1.44
- ANMS GCSI-DD early satiety subscale score, Day 14/EOT ([1]; 20 mg QD, mean, ITT Population): 1.20
- ANMS GCSI-DD early satiety subscale score, Percent change from baseline to Day 14/EOT ([1]; 20 mg QD, mean, ITT Population): −54.88%
- ANMS GCSI-DD nausea subscale score, Baseline ([1]; 20 mg QD, mean, ITT Population): 2.67
- ANMS GCSI-DD nausea subscale score, Change from baseline to Day 14/EOT ([1]; 20 mg QD, mean, ITT Population): −1.93
- ANMS GCSI-DD nausea subscale score, Day 14/EOT ([1]; 20 mg QD, mean, ITT Population): 0.73
- ANMS GCSI-DD nausea subscale score, Percent change from baseline to Day 14/EOT ([1]; 20 mg QD, mean, ITT Population): −62.56%
- ANMS GCSI-DD postprandial fullness subscale score, Baseline ([1]; 20 mg QD, mean, ITT Population): 2.84
- ANMS GCSI-DD postprandial fullness subscale score, Change from baseline to Day 14/EOT ([1]; 20 mg QD, mean, ITT Population): −1.31
- ANMS GCSI-DD postprandial fullness subscale score, Day 14/EOT ([1]; 20 mg QD, mean, ITT Population): 1.53
- ANMS GCSI-DD postprandial fullness subscale score, Percent change from baseline to Day 14/EOT ([1]; 20 mg QD, mean, ITT Population): −45.50%
- ANMS GCSI-DD total score, Baseline ([1]; 20 mg QD, mean, ITT Population): 2.13
- ANMS GCSI-DD total score, Day 14/EOT ([1]; 20 mg QD, mean, ITT Population): 0.88
- ANMS GCSI-DD total score, change from baseline to Day 14/EOT ([1]; 20 mg QD, mean, ITT Population): −1.25
- ANMS GCSI-DD total score, percent change from baseline to Day 14/EOT ([1]; 20 mg QD, mean, ITT Population): −55.99%
- ANMS GCSI-DD upper abdominal pain subscale score, Baseline ([1]; 20 mg QD, mean, ITT Population): 1.96
- ANMS GCSI-DD upper abdominal pain subscale score, Change from baseline to Day 14/EOT ([1]; 20 mg QD, mean, ITT Population): −1.09
- ANMS GCSI-DD upper abdominal pain subscale score, Day 14/EOT ([1]; 20 mg QD, mean, ITT Population): 0.87
- ANMS GCSI-DD upper abdominal pain subscale score, Percent change from baseline to Day 14/EOT ([1]; 20 mg QD, mean, ITT Population): −41.03%
- ANMS GCSI-DD vomiting subscale score, Baseline ([1]; 20 mg QD, mean, ITT Population): 0.53
- ANMS GCSI-DD vomiting subscale score, Change from baseline to Day 14/EOT ([1]; 20 mg QD, mean, ITT Population): −0.47
- ANMS GCSI-DD vomiting subscale score, Day 14/EOT ([1]; 20 mg QD, mean, ITT Population): 0.07
- ANMS GCSI-DD vomiting subscale score, Percent change from baseline to Day 14/EOT ([1]; 20 mg QD, mean, ITT Population): −94.64%
- ANMS GCSI-DD total score and all subscale scores at Day 14/EOT, manual scoring ([1]; all deudomperidone treatment groups, placebo also decreased): decreased from baseline
- AUC% extrap ([2]; 5 mg BID): 11.72%
- CL/F ([2]; 5 mg BID): 48.394 L/h
- RAUC ([2]; 5 mg BID): 1.653
- RCmax ([2]; 5 mg BID): 1.838
- λz ([2]; 5 mg BID): 0.0413 h⁻¹
- AUC% extrap ([2]; 10 mg BID): 9.31%
- CL/F ([2]; 10 mg BID): 69.640 L/h
- RAUC ([2]; 10 mg BID): 2.430
- RCmax ([2]; 10 mg BID): 2.179
- λz ([2]; 10 mg BID): 0.0454 h⁻¹
- AUC% extrap ([2]; 20 mg QD): 8.48%
- CL/F ([2]; 20 mg QD): 55.317 L/h
- RAUC ([2]; 20 mg QD): 2.011
- RCmax ([2]; 20 mg QD): 2.620
- λz ([2]; 20 mg QD): 0.0454 h⁻¹
- exposure (Cmax and AUC) in patients with gastroparesis compared to that expected from healthy subjects ([2]; given dose level): approximately 2 fold
- PR or QRS outliers [3]: no PR or QRS outliers
- treatment-emergent U waves [3]: no treatment-emergent U waves
- Tmax ([4]; 5 mg, Tmax, Day 1 (single dose), 5 mg BID, median, plasma deuterated domperidone): 2 h
- Tmax ([4]; 5 mg, Tmax, Day 14 (steady state), 5 mg BID, median, plasma deuterated domperidone): 2 h
- Tmax ([4]; 10 mg, Tmax, Day 1 (single dose), 10 mg BID, median, plasma deuterated domperidone): 2 h
- Tmax ([4]; 10 mg, Tmax, Day 14 (steady state), 10 mg BID, median, plasma deuterated domperidone): 2 h
- Tmax ([4]; 20 mg, Tmax, Day 1 (single dose), 20 mg QD, median, plasma deuterated domperidone): 2.5 h
- Tmax ([4]; 20 mg, Tmax, Day 14 (steady state), 20 mg QD, median, plasma deuterated domperidone): 2 h
- Tmax ([4]; median Tmax, across dose groups (5 mg BID, 10 mg BID, 20 mg QD), patients with gastroparesis): 2 to 2.5 h
